# Measured values from patent US20060019241A1, “Na+ and CI-coupled transport system for endogenous opioid peptides” (priority 2004, published 2006).
# “Also recorded” adds a separate entry of the source.
# Assays:
# [1] = system: enkephalin/endorphin transport system in SK—N—SH cells; assay: [^3H]deltorphin II uptake in SK—N—SH cells, effect of peptides and amino acids; format: cell-based, human; settings: for influence on kinetics of deltorphin II uptake / type of inhibition: 250 μM L-Lysine; for effect on [^3H]deltorphin II uptake (in words): test substance 1 mM
# Experimental: (§1) Uptake measurements in control ARPE-19 cells and Tat-ARPE-19 cells. Control ARPE-19 cells and Tat-ARPE-19 cells were maintained in 75-cm^2 culture flasks in Dulbecco's modified Eagle's medium/F12 medium (1:1, volume/volume (v/v)) in the presence of fetal bovine serum (10%) and G418 (100 μg/ml). For uptake measurements, cells were released by trypsin treatment and seeded in 24-well culture plates at an initial density of 0.1×10^6 cells/well. The culture medium was replaced with fresh medium on the second day following the initial seeding and uptake measurements were made on the third day. […] After incubation at 37° C. for a desired time, uptake was terminated by the removal of the medium and washing of the cells with ice-cold uptake buffer. The cells were then dissolved in 1% SDS in 0.2 M NaOH and used for measurement of radioactivity. The uptake buffer in most experiments was 25 mM Hepes/Tris (pH 7.5), containing 140 mM NaCl, 5.4 mM KCl, 1.8 mM CaCl2, 0.8 mM MgSO4 and 5 mM glucose.
# Since enkephalins and endorphins are relevant to pain perception and to further provide evidence in support of a role for the transport system in opioidergic neurotransmission, the human neuronal cell line SK—N—SH was tested for expression of the transport system. […] Unless otherwise specified, procedures are as detailed in Example 1.
# The concentration of enkephalins and dynorphins was 1 mM.
# Finally, the relative affinity of various enkephalins and dynorphins for the transport system in SK—N—SH cells was determined.
# To the further characterize the opioid transport of the present invention, various specific peptides that act as positive modulators of the enkephalin/endorphin transport system in the human neuronal cell line SK—N—SH were identified. Unless otherwise specified, procedures are as detailed in Example 1. […] Uptake was measured in the presence of NaCl for 30 minutes. The concentration of the dipeptides was 1 mM.
# Uptake was measured in the presence of NaCl for 30 minutes. The concentration of the tripeptides was 1 mM.
# Unless otherwise specified, procedures are as described in more detail in Example 1.
# The dose-response relationship for the inhibition of the enkephalin/endorphin transport system by L-Lysine and its methyl and ethyl esters is shown in FIG. 15.
# SK—N—SH cells = assay: L-lysine uptake in SK—N—SH cells; format: cell-based, human
# Experimental: Whether or not L-lysine is a transportable substrate for the opioid peptide transport system was tested. For this, uptake of L-lysine was studied and the influence of Na^+ and opioid peptides assessed in SK—N—SH cells.
# [2] = system: opioid peptide transport system in rMC-1 cells; assay: Opioid peptide transport in rMC-1 cells; format: cell-based, rat
# [3] = system: deltorphin II uptake inducible by rMC-1 mRNA in X. laevis oocytes; assay: Deltorphin II uptake in X. laevis oocytes injected with rMC-1 mRNA; format: cell-based, rat; settings: X. laevis oocytes injected with rMC-1 poly(A)+ mRNA, deltorphin II 125 nM
# Experimental: Therefore, functional expression of the deltorphin II transport system in X. laevis oocytes will be used to clone this transport system. […] Poly(A)+ mRNA was prepared from this cell line for functional expression studies in X. laevis oocytes.
# [4] = system: deltorphin II transport system in Tat-ARPE-19 cells; assay: Inhibition of [^3H]deltorphin II uptake in Tat-ARPE-19 cells; format: cell-based, human; settings: Tat-ARPE-19 cells, [^3H]deltorphin II 50 nM, 30 minutes, NaCl, inhibitor 1 mM
# Excerpt: (§2) Stable transfection of ARPE-19 cells with pcDNA-Tat cDNA. The pGEM2-Tat cDNA construct contained as the insert a 295 basepair (bp) fragment encoding the first exon of HIV-1 Tat gene joined to a 145 bp pET3A transcription terminator. The entire insert (440 bp) was removed from the construct by digestion with PstI and EcoRI and ligated into the multiple cloning region of pcDNA3.1 (−) vector at PstI/EcoRI site so that the insert is downstream of the cytomegalovirus (CMV) promoter. The resultant construct was sequenced to confirm the orientation of the insert. This construct was electroporated into ARPE-19 cells and the stably transfected cell clones were isolated in the presence of Geneticin (G418). To serve as a control, empty pcDNA3.1 vector was electroporated into ARPE-19 cells in an identical manner and the clones harboring the vector were selected by G418 resistance.
# as §1
# When the influence of Na^+ on the uptake process was investigated, the concentration of NaCl in the uptake buffer was adjusted, as desired, by isoosmotically replacing NaCl with N-methyl-D-glucamine chloride. To assess the influence of Cl^− on the uptake process, the composition of the uptake medium was modified by replacing KCl and CaCl2 with equimolar concentrations of potassium gluconate and calcium gluconate and the concentration of NaCl was adjusted, as desired, by iso-osmotically replacing NaCl with sodium gluconate. Saturation kinetics were analysed by fitting the data to the Michaelis-Menten equation. The Michaelis-Menten constant, Kt, was calculated by non-linear regression analysis and then confirmed by linear regression. Na^+- and Cl^−-activation kinetics were analyzed by fitting the data to the Hill equation and the Hill coefficients for Na^+ and Cl^− (h; the number of Na^+ and Cl^− ions involved in the activation process) and the K0.5 values (the concentration of Na^+ and Cl^−-needed for half-maximal activation) were determined from the analysis. Again, these constants were first calculated by non-linear regression methods and subsequently confirmed by linear regression methods. Experiments were repeated three times in duplicate and the results are given as means±S.E.M.
# (§3) Substrate specificity of the deltorphin transport system. […] These peptides consisted of 4-13 amino acids.
# Relative affinities of endogenous opioid peptides for the transport system.
# [5] = system: deltorphin II transport system in control ARPE-19 cells; assay: Inhibition of [^3H]deltorphin II uptake in control ARPE-19 cells; format: cell-based, human; settings: [^3H]deltorphin II 50 nM, 30 minutes, NaCl, peptide/antagonist 1 mM
# Excerpt: as §2, §1, §3
compound,measurement,setting,value
"NCCCC[C@H](N)C(=O)O [L-Lys, L-lysine]","interaction with the opioid peptide transport system (in words, summary of Examples)",[1],inhibited; also recorded: not a transportable substrate but a blocker
same,influence on kinetics of deltorphin II uptake / type of inhibition,[1]; listed as L-Lysine,decreased the maximal velocity of the transport system without affecting the affinity for deltorphin II; also recorded: decreasing the maximal velocity without affecting the substrate affinity
same,influence on kinetics of deltorphin II uptake / type of inhibition,[1]; listed as L-lysine,non-competitive
same,Deltorphin II uptake,"[1]; [^3H]deltorphin II 25 nM, NaCl, 30 minutes, compound 1 mM",0.26 ± 0.01 pmol/30 min/mg protein
same,effect on [^3H]deltorphin II uptake (in words),"[1]; [^3H]deltorphin II 25 nM, NaCl, 30 minutes, listed as L-Lysine",significant inhibition; also recorded: most potent inhibitors
same,effect on [^3H]deltorphin II uptake (in words),"[1]; [^3H]deltorphin II 25 nM, NaCl, 30 minutes, listed as L-lysine",greatest inhibition; also recorded: inhibit the uptake to a marked extent
same,Ki,"[1]; read-out: Ki for inhibition of deltorphin II uptake, dose-response studies",160 ± 19 µM
same,L-lysine uptake: influence of Na^+ and opioid peptides; transportable substrate or not,SK—N—SH cells,not Na^+-dependent and is insensitive to opioid peptides; also recorded: not a transportable substrate
same,interaction with the opioid peptide transport system (in words),[2],inhibited; also recorded: not a transportable substrate but a blocker
C[C@]12CC[C@@H]3c4ccc(OS(=O)(=O)O)cc4CC[C@H]3[C@@H]1CCC2=O [estrone-3-sulfate],inhibition of mRNA-induced deltorphin II uptake (in words),[3],only a slight inhibition; also recorded: only slightly inhibited
YGGFLRRQF [Dynorphin B (1-9)],[^3H] Deltorphin II uptake,[4],0.08 ± 0.01 pmol/mg protein/30 min
same,[^3H] Deltorphin II uptake (%) of control,[4]; control = 100,1%
same,[^3H] Deltorphin II uptake,[5]; control ARPE-19 cells (pcDNA vector alone),0.06 ± 0.000 pmol/mg protein/30 min
same,[^3H] Deltorphin II uptake (%) of control,"[5]; control ARPE-19 cells, control = 100",5%
same,inhibition of mRNA-induced deltorphin II uptake (in words),[3]; listed as dynorphin B 1-9,completely inhibitable
same,inhibition of mRNA-induced deltorphin II uptake (in words),[3]; listed as dynorphin B1-9,completely inhibited
